Results: paper PMC10215448, “The Antimicrobial Effects of Colistin Encapsulated in Chelating Complex Micelles for the Treatment of Multi-Drug-Resistant Gram-Negative Bacteria: A Pharmacokinetic Study” (Antibiotics, 2023)
Structures can show the parent of a compound that is named as a salt. Bridge positions count the residues as written; N and C are the ends. Square brackets hold non-standard residues; d marks the D form. Peptide text beside a SMILES is read from it. * marks the point of attachment. X1 = CC[C@H](C)CCCCC(=O)*; Dab = NCC[C@H](N)C(=O)O

Experiments:
[1] = Pharmacokinetic study, plasma colistin after intravenous dosing; format: in vivo, Sprague-Dawley (SD) rats; details: male SD rats, iv 3 mg/kg for 15 min, LC-MS; for t1/2, elimination half-time T1/2(β): 3 rats per group, colistin one-compartment, CCM-CL two-compartment model (PKsolver), 3 mg/kg
Procedure: Chromatographic separation was performed by the ACQUITY UHPLC system (Waters Corporation, Milford, MA, USA) on a Phenomenex Kinetex EVO C18 column (150 mm × 4.6 mm; I.D. 5 μm) maintained at 25 ± 5 °C. The mobile phase consisted of solution ‘A’ (acetonitrile) and solution ‘B’ (0.05% trifluoroacetic acid in water, v/v). The percentage was initially set at 10% and increased to 60% within 5 min, using a flow rate of 0.5 mL/min. […] The total run time was 9 min, and the injection volume was 20 μL. We set the autosampler at 10 ± 5 °C. The ultra-performance liquid chromatography (UHPLC) was interfaced to an ACQUITY QDa detector (Waters Corporation) with electrospray ionization […] in positive mode used for detection. The optimized tuning parameters were as follows: capillary voltage, 0.3 kV; cone voltage, 8 V; and probe temperature, 600 °C. The mass transitions were m/z 585.5 for colistin A, 578.5 for colistin B, and 602.8 for polymyxin B (an internal standard).
Sample pre-treatment: Five microliters of polymyxin B (Toronto Research Chemicals, CAS number 1405-20-5) dissolved in water (420 μg/mL, an internal standard) was added to 100 μL rat plasma sample. After that, 400 μL of acetonitrile and 10% trichloroacetic acid mixed solution (50/50, v/v) was added. The samples were vortex-mixed for 1 min and then centrifuged at 12,000 rpm for 10 min. Following centrifugation, the supernatant was collected and filtered with 0.45 μm PVDF membrane filter for analysis.
The day before the pharmacokinetic study, the right carotid artery of each rat was cannulated for collection of blood samples. Following surgery, rats were individually housed in metabolic cages and were given 24 h for recovery. […] Blood plasma was collected at min 0, 15, 60, 120, and 180 following drug infusion. All blood samples were collected and transferred into an EDTA-K2 tube, and were then centrifuged at 1500 rcf for 10 min at 4 °C. The experiments were repeated three times. After centrifugation, the plasma was collected and examined by LC-MS. In previous pharmacokinetic studies, colistin is best described by the one-compartment linear model. […] CMS is hydrolyzed to form partially sulfomethylated derivatives as well as colistin sulfate, the active form of the drug. Like CMS, colistin is released from CCM-CL once ferrous ions in the CCM complex are captured by transferrin [34]. Therefore, we estimated the pharmacokinetics for colistin using the one-compartment model and CCM-CL using the two-compartment model. The data were analyzed using PKsolver (Microsoft Excel).

[2] = tested on: Acinetobacter baumannii 10591; assay: MIC by broth microdilution; format: cell-based; details: Mueller-Hinton broth, 5 x 10^5 CFUs/mL, 37 °C, 24 h
Procedure: (§1) Antimicrobial effects of the colistin and CCM-CL against P. aeruginosa ATCC 27853, A. baumannii BCRC 10591, and P. aeruginosa 048,431 were determined by the minimal inhibitory concentration (MIC). P. aeruginosa ATCC […] and A. baumannii BCRC 10591 are standard strains; they were purchased from the American Type Culture Collection and Biosource Collection and Research Center, Taiwan, respectively. P. aeruginosa 048431 is a carbapenem-resistant blood isolate from a patient with lung adenocarcinoma and ventilator-associated pneumonia. The broth microdilution method determined the MICs for the study drugs. Briefly, serial doubling dilutions of antimicrobial agents were made in a Mueller–Hinton broth. The final bacterial suspension in the mixture was adjusted to 5 × 10^5 CFUs/mL, and the exact colony count was measured by plating 10-fold serially diluted specimens of 100 μL aliquots on drug-free nutrient agar (Difco Laboratories, Franklin, NJ, USA). The mixtures of bacteria and drugs were incubated at 37 °C for 24 h. The MIC is defined as the lowest antibiotic concentration preventing visible growth in broth.

[3] = tested on: Pseudomonas aeruginosa 048431 (carbapenem-resistant blood isolate); assay: MIC by broth microdilution; format: cell-based; details: Mueller-Hinton broth, 5 x 10^5 CFUs/mL, 37 °C, 24 h
Procedure: as §1

[4] = tested on: Pseudomonas aeruginosa ATCC27853; assay: MIC by broth microdilution; format: cell-based; details: Mueller-Hinton broth, 5 x 10^5 CFUs/mL, 37 °C, 24 h
Procedure: as §1

[5] = tested on: male C57BL/6 mice; assay: No observed adverse effect level (NOAEL), up-and-down procedure; format: in vivo; details: for No. of Survival/Total Mice: 6 mg/mL, 8-week-old male C57BL/6 mice
Procedure: In the up-and-down method, animals were dosed one at a time. If an animal survived, the dose for the next animal increased; if it died, the next dose decreased. This test determined the safety of a single dose for intravenous bolus injection and 3 min infusion.

[6] = tested on: carbapenem-resistant P. aeruginosa 048431 pneumonia; assay: Survival study in the neutropenic murine pneumonia model; format: in vivo; details: neutropenic (cyclophosphamide) male C57BL/6 mice, intratracheal P. aeruginosa 048431, 8 mg/kg iv 90 min after infection and again on day 2, n = 10
Procedure: (§2) Male C57BL/6 mice (21 to 23 g) were divided into three groups (namely control, free colistin, and CCM-CL), with 10 mice in each group. All animals were administered 150 mg/kg of cyclophosphamide intraperitoneally, 3 days and 1 day before infection. At day 0 (defined as infection day), mice were infected with 0.04 mL of a drug-resistant strain P. aeruginosa 048431, which was administered intratracheally at a concentration of 5 × 10^5 CFUs/mL. Ninety minutes later, water, free colistin, and CCM-CL were administered intravenously at 8 mg/kg. On day 2, free colistin and CCM-CL at a dose of 8 mg/kg and water were administered again (Figure 5).
Data were analyzed using WinSTATt (Microsoft Excel). Overall survival probabilities […] were estimated using the Kaplan–Meier method. The log-rank test (Cox–Mantel) was used to test significant differences in survival among groups.

[7] = tested on: carbapenem-resistant P. aeruginosa (CRPA); assay: Bacterial load in lung of infected mice; format: in vivo, C57BL/6 mice; details: mice infected intratracheally, drug iv 1.5 h after infection, sacrificed 48 h later, lung homogenate 10-fold diluted, 48 h incubation
Procedure: as §2
This study was conducted and administered along with the survival assay. The pulmonary burden of P. aeruginosa was determined on the third day. Mice were sacrificed with carbon dioxide; then, their lungs were removed aseptically and rinsed with sterile saline. The lungs were treated with a homogenizer and then subjected to a 10-fold series of dilutions; 0.05 mL of each dilution was plated on dextrose agar. The plates were then incubated at 37 °C for 2 days, and the colonies were then enumerated.

CC[C@H](C)CCCCC(=O)N[C@@H](CCN)C(=O)N[C@H](C(=O)N[C@@H](CCN)C(=O)N[C@H]1CCNC(=O)[C@H]([C@@H](C)O)NC(=O)[C@H](CCN)NC(=O)[C@H](CCN)NC(=O)[C@H](CC(C)C)NC(=O)[C@@H](CC(C)C)NC(=O)[C@H](CCN)NC1=O)[C@@H](C)O [Colistin, Colistin sulfate] (X1-[Dab]T[Dab][Dab][Dab][dL]L[Dab][Dab]T; lactam 4-C)
AUC0–t ([1]; plasma sampled to 180 min): 239.31 mg·min/L | AUC0–inf ([1]; plasma): 239.32 mg·min/L | Cmax ([1]; plasma): 9.03 mg/L | t1/2, elimination half-time T1/2(β) ([1]; plasma): 12.46 min | t1/2, elimination half-time T1/2(β) ([1]; plasma, listed as free colistin): 102.23 min | Minimal inhibitory concentration [2]: 2 | Minimal inhibitory concentration [3]: 0.5 | Minimal inhibitory concentration [4]: 0.5 | No. of Survival/Total Mice ([5]; intravenous bolus injection, single dose 8 mg/kg): 5/5 | No. of Survival/Total Mice ([5]; intravenous bolus injection, single dose 13 mg/kg): 0/1 | No. of Survival/Total Mice ([5]; intravenous bolus injection, single dose 20 mg/kg): 1/3 | Safe dosage (NOAEL), slow infusion ([5]; single 3 min intravenous infusion, male C57BL/6 mice): 8 mg/kg | Safe (NOAEL) dose, bolus ([5]; single intravenous bolus injection, male C57BL/6 mice): 13 mg/kg | No. of Survival/Total Mice ([5]; slow infusion (3 min), single dose 13 mg/kg): 0/1 | 14-day survival rate [6]: 30% | Colony counts of CRPA isolated from the lungs [7]: 60 CFU
